In patent publication US8524194B2, “Radiolabelled MMP selective compounds” (Academisch Medisch Centrum Bij de Universiteit van Amsterdam, priority 2008, dated 2013):

Legend:
[1] = test system: atherosclerotic plaques (MMP-2); test: binding to atherosclerotic plaques in the aortic sinus, storage phosphor imaging; assay type: in vivo; conditions: ApoE−/− mice on Western Type diet, i.v., three hours after injection, FIG. 3
Experimental: Four month old ApoE−/− mice were given a Western Type diet (cat nr. 4021.06; Arie Blok Diervoeding, Woerden, the Netherlands), during one month to stimulate atherogenesis. On the last day of the experiment the radiolabeled MMP-2 antagonist was given by intravenous injection. Three hours after injection, the mice were harvested and the aortic sinus area was analysed overnight using a storage phosphor imaging technique for binding of the MMP2 antagonist.

[2] = tissue biodistribution after intravenous administration; assay type: in vivo, CL57/BL6 mice; conditions: i.v.
Experimental: Because the in vitro studies gave promising results, preliminary in vivo studies were performed using the CL57/BL6 mice (8 weeks old). The tissue distribution of [^123I]8 (which is representative for the radioisotopes with alternative halogens), after intravenous administration, was determined at three time points. […] This is regular pharmacokinetic behaviour of a radiotracer.
The extended biodistribution studies were performed using the CL57/BL6 mice (8 weeks old). Here the tissue distribution of [^123I]8, after intravenous administration was determined at 9 time points (up to 24 hours p.i.).

MMP-1 = target: T1, MMP-1 (Homo sapiens, UniProt P03956); test: in vitro MMP inhibition, MMP-1; assay type: biochemical; conditions: preliminary results
T1 sequence (P03956 100-469): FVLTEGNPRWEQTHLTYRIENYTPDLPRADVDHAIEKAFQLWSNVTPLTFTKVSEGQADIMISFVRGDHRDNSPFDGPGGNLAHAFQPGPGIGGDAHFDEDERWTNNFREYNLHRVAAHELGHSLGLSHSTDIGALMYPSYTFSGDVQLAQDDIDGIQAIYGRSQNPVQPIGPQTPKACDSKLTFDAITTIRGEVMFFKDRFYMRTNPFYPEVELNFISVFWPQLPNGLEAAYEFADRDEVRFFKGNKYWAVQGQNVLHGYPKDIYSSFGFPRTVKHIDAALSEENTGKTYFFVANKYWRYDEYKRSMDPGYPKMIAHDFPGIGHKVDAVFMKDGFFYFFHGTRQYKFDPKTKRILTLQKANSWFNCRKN

MMP-2 = target: T2, MMP-2 (Homo sapiens, UniProt P08253); test: in vitro MMP inhibition, MMP-2; assay type: biochemical; conditions: preliminary results
T2 sequence (P08253 110-660): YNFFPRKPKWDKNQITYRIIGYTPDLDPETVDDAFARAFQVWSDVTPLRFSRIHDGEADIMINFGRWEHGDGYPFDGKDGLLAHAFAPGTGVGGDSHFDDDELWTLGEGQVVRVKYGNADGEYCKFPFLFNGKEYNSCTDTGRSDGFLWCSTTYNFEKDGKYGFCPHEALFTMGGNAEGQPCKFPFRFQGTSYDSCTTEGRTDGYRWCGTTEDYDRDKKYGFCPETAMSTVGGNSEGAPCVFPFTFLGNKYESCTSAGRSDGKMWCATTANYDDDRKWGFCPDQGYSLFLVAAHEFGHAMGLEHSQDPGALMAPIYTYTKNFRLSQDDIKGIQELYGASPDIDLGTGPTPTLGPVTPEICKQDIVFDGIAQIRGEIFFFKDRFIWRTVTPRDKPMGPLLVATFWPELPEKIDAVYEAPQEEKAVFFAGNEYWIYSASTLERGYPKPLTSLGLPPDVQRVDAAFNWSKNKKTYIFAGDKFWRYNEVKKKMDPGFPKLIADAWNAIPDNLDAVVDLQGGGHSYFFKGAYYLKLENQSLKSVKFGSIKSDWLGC

MMP-9 = MMP-9 (Homo sapiens, UniProt P14780); test: in vitro MMP inhibition, MMP-9; assay type: biochemical; conditions: preliminary results
Chain of MMP-9 (P14780 94-707, species assumed): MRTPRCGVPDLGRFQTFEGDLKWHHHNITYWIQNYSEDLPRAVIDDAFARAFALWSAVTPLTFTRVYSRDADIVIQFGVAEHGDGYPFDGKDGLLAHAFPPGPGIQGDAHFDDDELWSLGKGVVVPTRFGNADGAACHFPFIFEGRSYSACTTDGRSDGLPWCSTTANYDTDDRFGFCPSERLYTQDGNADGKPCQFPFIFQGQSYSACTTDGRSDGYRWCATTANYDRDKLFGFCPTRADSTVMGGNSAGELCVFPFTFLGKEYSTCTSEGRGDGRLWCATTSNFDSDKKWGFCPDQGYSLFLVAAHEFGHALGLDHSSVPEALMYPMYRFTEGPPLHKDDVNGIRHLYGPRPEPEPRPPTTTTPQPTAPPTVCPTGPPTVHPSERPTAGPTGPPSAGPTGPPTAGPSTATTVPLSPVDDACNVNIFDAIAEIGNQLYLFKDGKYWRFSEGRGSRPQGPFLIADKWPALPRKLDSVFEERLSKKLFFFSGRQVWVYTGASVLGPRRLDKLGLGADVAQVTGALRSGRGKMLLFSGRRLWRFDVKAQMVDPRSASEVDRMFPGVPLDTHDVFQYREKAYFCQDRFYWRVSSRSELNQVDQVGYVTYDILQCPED

[3] = CL57/BL6 mice 8 weeks old, three time points, FIG. 1

Compound	radioactivity in the aortic sinus [1]	liver uptake [2, 3]	route of excretion [2, 3]	thyroid uptake (de-iodination in vivo) [2, 3]	re-uptake in liver and kidney ([2]; CL57/BL6 mice, 9 time points up to 24 hours p.i., FIG. 2)	IC50 (MMP-1) [nM]	IC50 (MMP-2) [nM]	IC50 (MMP-9) [nM]
O=C(O)CN(CC(=O)NO)S(=O)(=O)c1ccc(Oc2ccc([123I])cc2)cc1 [[^123I]8, {[4-(4-[^123I]Iodophenoxy)-benzenesulphonyl]-hydroxycarbamoylmethyl-amino}-acetic acid]	Increased radioactivity was observed in the aortic sinus of the heart	taken up intensively into the liver	excreted mainly via the urinary tract	very low uptake in the thyroid	A little re-uptake was observed in the liver and kidney after 3 and 6 hours respectively	–	–	–
O=C(O)CN(CC(=O)NO)S(=O)(=O)c1ccc(Oc2ccc(F)cc2)cc1 [Compound 6b, {[4-(4-Fluoro-phenoxy)-benzenesulphonyl]-hydroxycarbamoylmethyl-amino}-acetic acid]	–	–	–	–	–	4690 ± 2220	0.13 ± 0.03	0.27 ± 0.15
O=C(O)CN(CC(=O)NO)S(=O)(=O)c1ccc(Oc2ccc(I)cc2)cc1 [Compound 6e, {[4-(4-Iodo-phenoxy)-benzenesulphonyl]-hydroxycarbamoylmethyl-amino}-acetic acid]	–	–	–	–	–	1320 ± 790	7.64 ± 1.43	1.61 ± 1.41
O=C(O)CN(CC(=O)NO)S(=O)(=O)c1ccc(Oc2ccc(Br)cc2)cc1 [Compound 6d, {[4-(4-Bromo-phenoxy)-benzenesulphonyl]-hydroxycarbamoylmethyl-amino}-acetic acid]	–	–	–	–	–	910 ± 560	0.87 ± 0.4	1.95 ± 1.1
O=C(O)CN(CC(=O)NO)S(=O)(=O)c1ccc(Oc2ccccc2)cc1 [Compound 6a, {[4-Phenoxy-benzenesulphonyl]-hydroxycarbamoylmethyl-amino}-acetic acid]	–	–	–	–	–	1670 ± 980	1.89 ± 1.11	4.31 ± 2.06
